What was measured:
Assay type in all cases: biochemical
MLK2 = target: T1, MLK2 (Homo sapiens, UniProt Q02779); test: Inhibition of Mixed Lineage Kinase-2 (MLK2) activity; conditions: 100 μM ATP; for IC50: values without % sign; for inhibition at 0.1 µM: 100 nM compound
T1 construct: fused on or other part: GST tag
Experimental: (§1) The kinase activity of MLK1 was assessed using the Millipore Multiscreen TCA “in-plate” format as described for protein kinase C (Pitt & Lee, J. Biomol. Screening, 1: 47-51, 1996). Briefly, each 50-μl assay mixture contained 20 mM Hepes, pH 7.2, 5 mM EGTA, 15 mM MgCl2, 25 mM β-glycerophosphate, 60 μM ATP, 0.25 μCi [γ-^32P]ATP, 0.1% BSA, 500 μ/ml myelin basic protein (UBI #13-104), 2% DMSO, 1 μM of test compound, and 1 μg/ml of baculoviral GST-MLK1KD. Samples were incubated for 15 min at 37° C. The reaction was stopped by adding ice cold 50% TCA and the proteins were allowed to precipitate for 30 min at 4° C. The plates were then washed with ice cold 25% TCA. Supermix scintillation cocktail was added, and the plates were allowed to equilibrate for 1-2 hours prior to counting using the Wallac MicroBeta 1450 PLUS scintillation counter.
(§2) Assays were performed using the Millipore Multiscreen plate format as described for MLK1. Each 50-μl assay mixture contained 20 mM Hepes, pH 7.2, 5 mM EGTA, 15 mM MgCl2, 25 mM β-glycerophosphate, 100 μM ATP, 0.25 μCi [γ-^32P]ATP, 0.1% BSA, 500 μg/ml myelin basic protein (UBI #13-104), 2% DMSO, various concentrations of test compound, and 3 μg/ml of baculoviral GST-MLK2KDLZ. Samples were incubated for 15 min. at 37° C. The reaction was stopped by adding ice cold 50% TCA and the proteins were allowed to precipitate for 30 min at 4° C. The plates were then washed with ice cold 25% TCA. Supermix scintillation cocktail was added, and the plates were allowed to equilibrate for 1-2 hours prior to counting.

MLK1 = target: T2, MLK1 (Homo sapiens, UniProt P80192); test: Inhibition of Mixed Lineage Kinase-1 (MLK1) activity; conditions: 60 μM ATP; for IC50: values without % sign
T2 construct: 1 μg/ml of baculoviral GST-MLK1KD; GST (N); made in house
Experimental: The kinase activity of MLK1 was assessed using the Millipore Multiscreen TCA “in-plate” format as described for protein kinase C (Pitt & Lee, J. Biomol. Screening, 1: 47-51, 1996). Briefly, each 50-μl assay mixture contained 20 mM Hepes, pH 7.2, 5 mM EGTA, 15 mM MgCl2, 25 mM β-glycerophosphate, 60 μM ATP, 0.25 μCi [γ-^32P]ATP, 0.1% BSA, 500 μ/ml myelin basic protein (UBI #13-104), 2% DMSO, […], and 1 μg/ml of baculoviral GST-MLK1KD. Samples were incubated for 15 min at 37° C. The reaction was stopped by adding ice cold 50% TCA and the proteins were allowed to precipitate for 30 min at 4° C. The plates were then washed with ice cold 25% TCA. Supermix scintillation cocktail was added, and the plates were allowed to equilibrate for 1-2 hours prior to counting using the Wallac MicroBeta 1450 PLUS scintillation counter.

MLK3 = target: T3, MLK3 (Homo sapiens, UniProt Q16584); test: Inhibition of Mixed Lineage Kinase-3 (MLK3) activity; conditions: 100 μM ATP; for IC50: values without % sign
T3 construct: 2 μg/ml of baculoviral GST-MLK3KD; GST (N); made in house
Experimental: as §1
as §2, with “MLK1. Briefly, each” for “MLK1. Each”, “and 2” for “and 3”, “baculoviral GST-MLK3KD. Sample” for “baculoviral GST-MLK2KDLZ. Samples”, “15 min” for “15 min.”

[1] = target: T4, VEGF receptor (human flk-1, KDR, VEGFR2) kinase domain (Homo sapiens, UniProt P35968); test: Inhibition of VEGF receptor kinase activity (ELISA); conditions: 40 μM ATP; for IC50: values without % sign
T4 construct: VEGF receptor (human flk-1, KDR, VEGFR2) kinase domain; made in house
Experimental: Fused pyrrolocarbazole compounds were examined for their inhibitory effects on the kinase activity of baculovirus-expressed VEGF receptor (human flk-1, KDR, VEGFR2) kinase domain using the procedure described for the trkA kinase ELISA assay described below. The kinase reaction mixture, consisting of 50 mM Hepes, pH 7.4, 40 μM ATP, 10 mM MnCl2, 0.1% BSA, 2% DMSO, and various concentrations of inhibitor, was transferred to PLC-γ/GST-coated plates. VEGFR kinase was added and the reaction was allowed to proceed for 15 min. at 37° C. Detection of phosphorylated product was accomplished by addition of anti-phosphotyrosine antibody (UBI). A secondary enzyme-conjugated antibody was delivered to capture the antibody-phosphorylated PLC-γ/GST complex. The activity of the bound enzyme was measured via an amplified detection system (Gibco-BRL). Inhibition data were analyzed using the sigmoidal dose-response (variable slope) equation in GraphPad Prism.
Selected isomeric fused pyrrolocarbazole and isoindolone compounds can be tested for their ability to inhibit the kinase activity of baculovirus-expressed human trkA cytoplasmic domain using an ELISA-based assay as previously described (Angeles et al., Anal. Biochem. 236: 49-55, 1996). Briefly, the 96-well microtiter plate is coated with substrate solution (recombinant human phospholipase C-γl/glutathione S-transferase fusion protein (Rotin et al., EMBO J., 11: 559-567, 1992). Inhibition studies are performed in 100 μl assay mixtures containing 50 mM Hepes, pH 7.4, 40 μM ATP, 10 mM MnCl2, 0.1% BSA, 2% DMSO, and various concentrations of inhibitor. The reaction is initiated by addition of trkA kinase and allowed to proceed for 15 minutes at 37° C. An antibody to phosphotyrosine (UBI) is then added, followed by a secondary enzyme-conjugated antibody, alkaline phosphatase-labelled goat anti-mouse IgG (Bio-Rad). The activity of the bound enzyme is measured via an amplified detection system (Gibco-BRL). Inhibition data are analyzed using the sigmoidal dose-response (variable slope) equation in GraphPad Prism.

T2 sequence (P80192 144-412 limits assumed, species assumed): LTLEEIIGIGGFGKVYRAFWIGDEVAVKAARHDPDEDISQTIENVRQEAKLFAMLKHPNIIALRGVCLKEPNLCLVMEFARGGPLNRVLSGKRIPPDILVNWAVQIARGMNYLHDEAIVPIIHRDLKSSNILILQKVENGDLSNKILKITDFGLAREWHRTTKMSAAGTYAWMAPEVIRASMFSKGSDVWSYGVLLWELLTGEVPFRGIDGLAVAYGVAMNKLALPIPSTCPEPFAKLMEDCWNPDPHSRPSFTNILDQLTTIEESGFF
T4 sequence (P35968 834-1162 limits assumed): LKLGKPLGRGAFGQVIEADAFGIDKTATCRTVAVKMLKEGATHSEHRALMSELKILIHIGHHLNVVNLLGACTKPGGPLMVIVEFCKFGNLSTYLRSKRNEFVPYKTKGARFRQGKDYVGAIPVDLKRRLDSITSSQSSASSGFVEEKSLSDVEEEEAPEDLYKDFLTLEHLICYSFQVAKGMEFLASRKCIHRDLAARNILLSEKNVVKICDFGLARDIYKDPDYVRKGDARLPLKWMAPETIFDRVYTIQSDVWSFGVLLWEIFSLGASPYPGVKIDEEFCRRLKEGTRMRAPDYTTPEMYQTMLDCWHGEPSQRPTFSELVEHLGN
T1 sequence (Q02779 98-440 limits assumed): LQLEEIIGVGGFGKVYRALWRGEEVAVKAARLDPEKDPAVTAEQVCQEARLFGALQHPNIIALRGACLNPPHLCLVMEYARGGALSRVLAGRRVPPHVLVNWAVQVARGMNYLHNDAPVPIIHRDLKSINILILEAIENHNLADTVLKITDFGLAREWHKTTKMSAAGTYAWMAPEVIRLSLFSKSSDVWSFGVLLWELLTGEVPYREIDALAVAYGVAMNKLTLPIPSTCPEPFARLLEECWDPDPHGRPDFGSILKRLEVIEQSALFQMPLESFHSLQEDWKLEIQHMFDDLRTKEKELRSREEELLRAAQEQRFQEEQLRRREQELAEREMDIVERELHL
T3 sequence (Q16584 117-379 limits assumed, species assumed): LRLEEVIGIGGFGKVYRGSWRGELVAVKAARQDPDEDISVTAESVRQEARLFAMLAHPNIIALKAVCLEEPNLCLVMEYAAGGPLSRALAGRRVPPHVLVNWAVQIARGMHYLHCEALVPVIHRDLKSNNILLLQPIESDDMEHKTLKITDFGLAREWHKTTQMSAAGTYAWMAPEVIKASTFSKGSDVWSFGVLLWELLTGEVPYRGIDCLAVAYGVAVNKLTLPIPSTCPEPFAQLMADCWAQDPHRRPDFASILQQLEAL

| Compound | IC50 (MLK2) | IC50 (MLK1) | IC50 (MLK3) | IC50 [1] | inhibition at 0.1 µM (MLK2) | inhibition at 0.1 µM (MLK1; 100 nM compound) | inhibition at 0.1 µM (MLK3; 100 nM compound) | inhibition at 0.3 µM ([1]; 300 nM compound, read-out: VEGFR2 % inh. @ 300 nM) |
| --- | --- | --- | --- | --- | --- | --- | --- | --- |
| CCOC(C)c1ccc2c(c1)c1c3c(c4c(c1n2CCCO)Cc1ccccc1-4)C(=O)NC3 (single isomer, unassigned) [Compound 12] | 131 nM | 28 nM | 16 nM | 240 nM | – | – | – | – |
| O=C1NCc2c1c1c(c3c2c2ccccc2n3CCO)Cc2ccccc2-1 [A, reference compound] | – | 22 nM | 8 nM | 107 nM | 39% | – | – | – |
| CC(C)CC(N)C(=O)OCCCn1c2ccccc2c2c3c(c4c(c21)Cc1ccccc1-4)C(=O)NC3 (centres unmarked) [C, reference compound] | – | – | – | – | 0% | 8% | 30% | 17% |
| CC[C@@H](C)OCc1ccc2c(c1)c1c3c(c4c(c1n2CCCO)Cc1ccccc1-4)C(=O)NC3 [Compound 5] | – | 27 nM | 16 nM | 12 nM | 45% | – | – | – |
| CC[C@H](C)OCc1ccc2c(c1)c1c3c(c4c(c1n2CCCO)Cc1ccccc1-4)C(=O)NC3 [Compound 6] | – | 38 nM | 19 nM | 19 nM | 51% | – | – | – |
| CC(C)OCc1ccc2c(c1)c1c3c(c4c(c1n2CCCOC(=O)CCN)Cc1ccccc1-4)C(=O)NC3 [Compound 20] | 229 nM | 42 nM | 32 nM | 31 nM | – | – | – | – |
| CC(C)OCc1ccc2c(c1)c1c3c(c4c(c1n2CCCOC(=O)CN(C)C)Cc1ccccc1-4)C(=O)NC3 [Compound 22] | 170 nM | 74 nM | 28 nM | 18 nM | – | – | – | – |
| O=C1NCc2c1c1c(c3c2c2ccccc2n3CCCO)Cc2ccccc2-1 [Compound B, reference compound] | – | 31 nM | 17 nM | 48 nM | 46% | – | – | – |

Further molecules by falling IC50 (MLK1), results first:

| IC50 (MLK2) | IC50 (MLK1) | IC50 (MLK3) | IC50 [1] | inhibition at 0.1 µM (MLK2) | inhibition at 0.1 µM (MLK1; 100 nM compound) | inhibition at 0.1 µM (MLK3; 100 nM compound) | inhibition at 0.3 µM ([1]; 300 nM compound, read-out: VEGFR2 % inh. @ 300 nM) | Compound |
| --- | --- | --- | --- | --- | --- | --- | --- | --- |
| 86 nM | 21 nM | – | 16 nM | – | – | – | – | CC(C)OCc1ccc2c(c1)c1c3c(c4c(c1n2CCCO)C(CO)c1ccccc1-4)C(=O)NC3 (centres unmarked) [Compound 40] |
| – | 20 nM | 26 nM | 73 nM | 62% | – | – | – | COC(C)c1ccc2c(c1)c1c3c(c4c(c1n2CCCO)Cc1ccccc1-4)C(=O)NC3 (centres unmarked) [Compound 13] |
| – | 19 nM | 13 nM | 13 nM | 76% | – | – | – | CCCOCc1ccc2c(c1)c1c3c(c4c(c1n2CCCO)Cc1ccccc1-4)C(=O)NC3 [Compound 8] |
| – | 9 nM | 5 nM | 208 nM | 64% | – | – | – | O=C1NCc2c1c1c(c3c2c2cc(CO)ccc2n3CCCO)Cc2ccccc2-1 [Compound 29] |

Source: US6630500B2, “Selected fused pyrrolocarbazoles” (Cephalon, Inc., priority 2000, dated 2003)
